Measured values: patent US20250171457A1, “NITROGEN-CONTAINING HETEROCYCLIC COMPOUND HAVING NRF2 ACTIVATION EFFECT” (CHUGAI SEIYAKU KABUSHIKI KAISHA, priority 2022, published 2025)

System: Nrf2 transcriptional activity (pARE-Luc reporter) in HepG2 cells
Test: In vitro Nrf2 transcriptional activity measurement by ARE-dependent reporter assay in HepG2 cell
Assay type: cell-based, human
Conditions: Homo sapiens; HepG2 cells transfected with pARE-Luc, 4 hours at 37° C.; luciferase activity of Example 1-54 or Example 17-23 at 3.75 μM defined as 100%
Summary of the method: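 Luminescence readout (Bright-Glo) after 4 h, 37° C compound exposure of HepG2 cells carrying the ARE-luciferase vector pGL4.37. Each well converted to % response versus reference compound at 3.75 μM, and EC50 derived from dose-response curves.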

Row | Structure (SMILES) | EC50 [nM]
1 | C[C@H]1CN(C2COC2)CCN1c1cc(Cl)c(C(=O)N2COc3c(cccc3-c3cc(N4C5CCC4COC5)c(C(=O)O)cc3F)C2)c(Cl)c1 [Compound 9-19, 4-[3-[2,6-Dichloro-4-[(2S)-2-methyl-4-(oxetan-3-yl)piperazin-1-yl]benzoyl]-2,4-dihydro-1,3-benzoxazin-8-yl]-5-fluoro-2-(3-oxa-8-azabicyclo[3.2.1]octan-8-yl)benzoic acid] | 5.9
2 | O=C(O)c1cc(F)c(-c2cccc3c2OCN(C(=O)c2c(Cl)cc(N4CC5CCC(C4)N5C4CC4)cc2Cl)C3)cc1N1C2CCC1COC2 [Compound 9-20, 4-[3-[2,6-Dichloro-4-(8-cyclopropyl-3,8-diazabicyclo[3.2.1]octan-3-yl)benzoyl]-2,4-dihydro-1,3-benzoxazin-8-yl]-5-fluoro-2-(3-oxa-8-azabicyclo[3.2.1]octan-8-yl)benzoic acid] | 4.6
3 | O=C(O)c1cc(F)c(-c2cccc3c2OCN(C(=O)c2c(Cl)cc(N4C5CC4CN(C4CC(F)(F)C4)C5)cc2Cl)C3)cc1N1C2CCC1COC2 [Compound 9-21, 4-[3-[2,6-Dichloro-4-[3-(3,3-difluorocyclobutyl)-3,6-diazabicyclo[3.1.1]heptan-6-yl]benzoyl]-2,4-dihydro-1,3-benzoxazin-8-yl]-5-fluoro-2-(3-oxa-8-azabicyclo[3.2.1]octan-8-yl)benzoic acid] | 6
4 | CCN1CCN(c2cc(Cl)c(C(=O)N3COc4c(cccc4-c4cc(N5C6CCC5COC6)c(C(=O)O)cc4F)C3)c(Cl)c2)[C@H](C)C1 [Compound 9-22, 4-[3-[2,6-Dichloro-4-[(2R)-4-ethyl-2-methylpiperazin-1-yl]benzoyl]-2,4-dihydro-1,3-benzoxazin-8-yl]-5-fluoro-2-(3-oxa-8-azabicyclo[3.2.1]octan-8-yl)benzoic acid] | 0.9
5 | CN1CCN(c2cc(Cl)c(C(=O)N3COc4c(cccc4-c4cc(N5C6CCC5COC6)c(C(=O)O)cc4F)C3)c(Cl)c2)CC1C(F)(F)F (centres unmarked) [Compound 9-23, 4-[3-[2,6-Dichloro-4-[4-methyl-3-(trifluoromethyl)piperazin-1-yl]benzoyl]-2,4-dihydro-1,3-benzoxazin-8-yl]-5-fluoro-2-(3-oxa-8-azabicyclo[3.2.1]octan-8-yl)benzoic acid] | 3.1
6 | CC1C(C)N(c2cc(Cl)c(C(=O)N3COc4c(cccc4-c4cc(N5C6CCC5COC6)c(C(=O)O)cc4F)C3)c(Cl)c2)CCN1C (centres unmarked) [Compound 9-24, 4-[3-[2,6-Dichloro-4-(2,3,4-trimethylpiperazin-1-yl)benzoyl]-2,4-dihydro-1,3-benzoxazin-8-yl]-5-fluoro-2-(3-oxa-8-azabicyclo[3.2.1]octan-8-yl)benzoic acid] | 2.5
7 | C[C@@H]1CNCCN1c1cc(Cl)c(C(=O)N2COc3c(cccc3-c3cc(N4C5CCC4COC5)c(C(=O)O)cc3F)C2)c(Cl)c1 [Compound 9-25, 4-[3-[2,6-Dichloro-4-[(2R)-2-methylpiperazin-1-yl]benzoyl]-2,4-dihydro-1,3-benzoxazin-8-yl]-5-fluoro-2-(3-oxa-8-azabicyclo[3.2.1]octan-8-yl)benzoic acid] | 8.8
8 | CN1CCC2(C1)CN(c1cc(Cl)c(C(=O)N3COc4c(cccc4-c4cc(N5C6CCC5COC6)c(C(=O)O)cc4F)C3)c(Cl)c1)C2 [Compound 10-1, 4-[3-[2,6-Dichloro-4-(7-methyl-2,7-diazaspiro[3.4]octan-2-yl)benzoyl]-2,4-dihydro-1,3-benzoxazin-8-yl]-5-fluoro-2-(3-oxa-8-azabicyclo[3.2.1]octan-8-yl)benzoic acid] | 6.5
9 | O=C(O)c1cc(F)c(-c2cccc3c2OCN(C(=O)c2c(Cl)cc(N4CC5(CCN(C6COC6)C5)C4)cc2Cl)C3)cc1N1C2CCC1COC2 [Compound 10-2, 4-[3-[2,6-Dichloro-4-[7-(oxetan-3-yl)-2,7-diazaspiro[3.4]octan-2-yl]benzoyl]-2,4-dihydro-1,3-benzoxazin-8-yl]-5-fluoro-2-(3-oxa-8-azabicyclo[3.2.1]octan-8-yl)benzoic acid] | 5.2
10 | C[C@@H]1CN(c2cc(Cl)c(C(=O)N3COc4c(cccc4-c4cc(N5C6CCC5COC6)c(C(=O)O)cc4F)C3)c(Cl)c2)CCN1C [Compound 10-3, 4-[3-[2,6-Dichloro-4-[(3R)-3,4-dimethylpiperazin-1-yl]benzoyl]-2,4-dihydro-1,3-benzoxazin-8-yl]-5-fluoro-2-(3-oxa-8-azabicyclo[3.2.1]octan-8-yl)benzoic acid] | 1.5
11 | C[C@@H]1CN(c2cc(Cl)c(C(=O)N3COc4c(cccc4-c4cc(N5C6CCC5COC6)c(C(=O)O)cc4F)C3)c(Cl)c2)C[C@H](C)N1C [Compound 10-4] | 4.8
12 | C[C@H]1CN(c2cc(Cl)c(C(=O)N3COc4c(cccc4-c4cc(N5C6CCC5COC6)c(C(=O)O)cc4F)C3)c(Cl)c2)CCN1C [Compound 10-5, 4-[3-[2,6-Dichloro-4-[(3S)-3,4-dimethylpiperazin-1-yl]benzoyl]-2,4-dihydro-1,3-benzoxazin-8-yl]-5-fluoro-2-(3-oxa-8-azabicyclo[3.2.1]octan-8-yl)benzoic acid] | 4.3
13 | CN1CCN(c2cc(Cl)c(C(=O)N3COc4c(cccc4-c4cc(N5C6CCC5COC6)c(C(=O)O)cc4F)C3)c(Cl)c2)CC1(C)C [Compound 10-6, 4-[3-[2,6-Dichloro-4-(3,3,4-trimethylpiperazin-1-yl)benzoyl]-2,4-dihydro-1,3-benzoxazin-8-yl]-5-fluoro-2-(3-oxa-8-azabicyclo[3.2.1]octan-8-yl)benzoic acid] | 9.1
14 | O=C(O)c1cc(F)c(-c2cccc3c2OCN(C(=O)c2c(Cl)cc(N4C[C@@H]5C[C@H]4CN5C4COC4)cc2Cl)C3)cc1N1C2CCC1COC2 [Compound 10-7, 4-[3-[2,6-Dichloro-4-[(1S,4S)-5-(oxetan-3-yl)-2,5-diazabicyclo[2.2.1]heptan-2-yl]benzoyl]-2,4-dihydro-1,3-benzoxazin-8-yl]-5-fluoro-2-(3-oxa-8-azabicyclo[3.2.1]octan-8-yl)benzoic acid] | 23
15 | C[C@@H]1CN(c2cc(Cl)c(C(=O)N3COc4c(cccc4-c4cc(N5C6CCC5COC6)c(C(=O)O)cc4F)C3)c(Cl)c2)CCN1C1COC1 [Compound 10-8, 4-[3-[2,6-Dichloro-4-[(3R)-3-methyl-4-(oxetan-3-yl)piperazin-1-yl]benzoyl]-2,4-dihydro-1,3-benzoxazin-8-yl]-5-fluoro-2-(3-oxa-8-azabicyclo[3.2.1]octan-8-yl)benzoic acid] | 1.5
16 | O=C(O)c1cc(F)c(-c2cccc3c2OCN(C(=O)c2c(Cl)cc(N4CCCN(C5COC5)CC4)cc2Cl)C3)cc1N1CCOCC1 [Compound 10-9, 4-[3-[2,6-Dichloro-4-[4-(oxetan-3-yl)-1,4-diazepan-1-yl]benzoyl]-2,4-dihydro-1,3-benzoxazin-8-yl]-5-fluoro-2-morpholin-4-ylbenzoic acid] | 1.2
17 | CN1C[C@@H]2C[C@H]1CN2c1cc(Cl)c(C(=O)N2COc3c(cccc3-c3cc(N4C5CCC4COC5)c(C(=O)O)cc3F)C2)c(Cl)c1 [Compound 10-10, 4-[3-[2,6-Dichloro-4-[(1S,4S)-5-methyl-2,5-diazabicyclo[2.2.1]heptan-2-yl]benzoyl]-2,4-dihydro-1,3-benzoxazin-8-yl]-5-fluoro-2-(3-oxa-8-azabicyclo[3.2.1]octan-8-yl)benzoic acid] | 25
18 | O=C(O)c1cc(F)c(-c2cccc3c2OCN(C(=O)c2c(Cl)cc(N4CC5(C4)CN(C4COC4)C5)cc2Cl)C3)cc1N1CCOCC1 [Compound 10-11, 4-[3-[2,6-Dichloro-4-[2-(oxetan-3-yl)-2,6-diazaspiro[3.3]heptan-6-yl]benzoyl]-2,4-dihydro-1,3-benzoxazin-8-yl]-5-fluoro-2-morpholin-4-ylbenzoic acid] | 2.4
19 | CN1CC2(C1)CN(c1cc(Cl)c(C(=O)N3COc4c(cccc4-c4cc(N5CCOCC5)c(C(=O)O)cc4F)C3)c(Cl)c1)C2 [Compound 10-12, 4-[3-[2,6-Dichloro-4-(6-methyl-2,6-diazaspiro[3.3]heptan-2-yl)benzoyl]-2,4-dihydro-1,3-benzoxazin-8-yl]-5-fluoro-2-morpholin-4-ylbenzoic acid] | 1.2
20 | CC(C)N1CCC(Oc2cc(Cl)c(C(=O)N3COc4c(cccc4-c4ccc(C(=O)O)c(N5CCOCC5)c4)C3)c(Cl)c2)CC1 [Compound 10-13, 4-[3-[2,6-Dichloro-4-(1-propan-2-ylpiperidin-4-yl)oxybenzoyl]-2,4-dihydro-1,3-benzoxazin-8-yl]-2-morpholin-4-ylbenzoic acid] | 4.2
21 | COC1CN(C2CC3(C2)CN(c2cc(Cl)c(C(=O)N4COc5c(cccc5-c5cc(N6C7CCC6COC7)c(C(=O)O)cc5F)C4)c(Cl)c2)C3)C1 [Compound 11-1, 4-[3-[2,6-Dichloro-4-[6-(3-methoxyazetidin-1-yl)-2-azaspiro [3.3]heptan-2-yl]benzoyl]-2,4-dihydro-1,3-benzoxazin-8-yl]-5-fluoro-2-(3-oxa-8-azabicyclo [3.2.1]octan-8-yl)benzoic acid] | 3.6
22 | COC1(C)CN(C2CN(c3cc(Cl)c(C(=O)N4COc5c(cccc5-c5cc(N6C7CCC6COC7)c(C(=O)O)cc5F)C4)c(Cl)c3)C2)C1 [Compound 11-2, 4-[3-[2,6-Dichloro-4-[3-(3-methoxy-3-methylazetidin-1-yl)azetidin-1-yl]benzoyl]-2,4-dihydro-1,3-benzoxazin-8-yl]-5-fluoro-2-(3-oxa-8-azabicyclo [3.2.1]octan-8-yl)benzoic acid] | 4.2
23 | O=C(O)c1cc(F)c(-c2cccc3c2OCN(C(=O)c2c(Cl)cc(N4CC(n5cccn5)C4)cc2Cl)C3)cc1N1C2CCC1COC2 [Compound 11-3, 4-[3-[2,6-Dichloro-4-(3-pyrazol-1-ylazetidin-1-yl)benzoyl]-2,4-dihydro-1,3-benzoxazin-8-yl]-5-fluoro-2-(3-oxa-8-azabicyclo[3.2.1]octan-8-yl)benzoic acid] | 9.5
